Reference: US20060293223A1 (Eli Lilly and Company Patent Division, priority 2003, published 2006)
Positions of bridges follow the written chain, without caps; N, C: chain ends. Non-standard residues stand in square brackets, D forms with d. No end group written: not given here. hCys = N[C@@H](CCS)C(=O)O

test system: MC1/MC4; settings: ratio MC1/MC4
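Further: ratio of EC50 values obtained at MC1 versus MC4 receptors, with MC1 potency measured by luciferase reporter activity in stably transfected cells expressing human MC1.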

Substance	MC1/MC4 selectivity
Ac-cyclo[Cys-Glu-His-(4-Br-D-Phe)-Arg-Trp-Cys]-NH2 [Compound 33]	79.54
Ac-Tyr-Arg-cyclo[Cys-Glu-(β-(1,2,4-triazol-3-yl))-D-Ala)-D-Phe-Arg-Trp-Cys]-NH2 [Compound 107]	1.00
Arg-cyclo[Cys-His-(4-F-D-Phe)-Arg-Trp-hCys]-NH2 [Compound 187]	20.76
Ac-cyclo[hCys-His-(4-Cl-D-Phe)-Arg-Trp-penicillamine]-NH2 [Compound 169]	1804.00
N-hexanoyl-cyclo[hCys-His-D-Phe-Arg-Trp-penicillamine]-NH2 [Compound 170]	9.00
Ac-Arg-cyclo[Cys-Glu-(1-Me-His)-D-Phe-Arg-Trp-Cys]-NH2 [Compound 51]	76.75
N-cyclopentanecarbonyl-cyclo[hCys-His-D-Phe-Arg-Trp-Cys]-NH2 [Compound 143]	19.27
Ac-YRCNH[dF]RWC-NH2 (disulfide 3-9) [Compound 5]	5.00
3-(4-methylbenzoyl)propionyl-Arg-cyclo[Cys-Glu-His-D-Phe-Arg-Trp-Cys]-NH2 [Compound 67]	9.15
Tyr-Arg-cyclo[Cys-Glu-His-D-Phe-Arg-Trp-Cys]-NH2 [Compound 68]	14.08
Ac-YRCTH[dF]RWC-NH2 (disulfide 3-9) [Compound 22]	6.85
Ac-Arg-cyclo[Cys-Glu-His-D-Phe-Arg-Trp-Cys]-NH2 [Compound 48]	26.80
Ac-cyclo[hCys-His-(4-F-D-Phe)-Arg-Trp-Cys]-NH2 [Compound 139]	44.29
N-(2-naphthalenesulfonyl)-D-Arg-cyclo[Cys-Glu-His-D-Phe-Arg-Trp-Cys]-NH2 [Compound 64]	4.12
Ac-KCEH[dF]RWC-NH2 (disulfide 2-8) [Compound 58]	31.69
Ac-diaminobutyryl-cyclo[Cys-Glu-His-D-Phe-Arg-Trp-Cys]-NH2 [Compound 44]	15.00
Ac-Tyr-Cit-cyclo[Cys-Glu-(1-Me-His)-D-Phe-Arg-Trp-Cys]-NH2 [Compound 125]	25.08
Ac-Tyr-Arg-cyclo[Cys-Glu-(1-Me-D-His)-D-Phe-Arg-Trp-Cys]-NH2 [Compound 82]	1.66
Ac-Tyr-Arg-cyclo[Cys-Glu-His-D-Phe-Arg-Trp-Cys]-Lys-Pro alcohol [Compound 122]	0.90

Substance	MC1/MC4 selectivity
Ac-cyclo[hCys-His-D-Phe-Arg-Trp-penicillamine]-NH2 [Compound 168]	212.71
Ac-CEH[dF]RWCKP-NH2 (disulfide 1-7) [Compound 35]	1.17
Ac-Tyr-Arg-cyclo[Cys-Glu-(β-(1,3-thiazol-4-yl)-Ala)-D-Phe-Arg-Trp-Cys]-NH2 [Compound 112]	5.62
N-phenylsulfonyl-cyclo[hCys-His-D-Phe-Arg-Trp-Cys]-NH2 [Compound 150]	12.88
N-(4-phenylsulfonamido-4-oxo-butyryl)-cyclo[hCys-His-D-Phe-Arg-Trp-Cys]-NH2 [Compound 152]	7.73
Ac-YRCDH[dF]RWC-NH2 (disulfide 3-9) [Compound 7]	15.00
R[hCys]H[dF]RWC-OH (disulfide 2-7) [Compound 155]	55.84
Ac-LCEH[dF]RWC-NH2 (disulfide 2-8) [Compound 57]	29.00
Ac-YRCVH[dF]RWC-NH2 (disulfide 3-9) [Compound 25]	11.00
Ac-YRCFH[dF]RWC-NH2 (disulfide 3-9) [Compound 19]	7.64
Ac-Tyr-Arg-cyclo[Cys-Glu-His-(4-Me-D-Phe)-Arg-Trp-Cys]-NH2 [Compound 92]	12.06
cyclo[hCys-His-(4-Cl-D-Phe)-Arg-Trp-Cys]-NH2 [Compound 135]	120.27
Ac-VCEH[dF]RWC-NH2 (disulfide 2-8) [Compound 63]	30.51
Ac-[hCys]H[dF]RW[hCys]-NH2 (disulfide 1-6) [Compound 193]	26.59
Ac-YRCMH[dF]RWC-NH2 (disulfide 3-9) [Compound 18]	8.15
Ac-Tyr-Arg-cyclo[Cys-Glu-His-(4-F-D-Phe)-Arg-Trp-Cys]-NH2 [Compound 83]	45.95
Ac-YRCRH[dF]RWC-NH2 (disulfide 3-9) [Compound 4]	0.26
cyclo[Cys-His-D-Phe-Arg-Trp-hCys]-NH2 [Compound 180]	30.38
Ac-Tyr-Arg-cyclo[Cys-Glu-(4-phenyl-1H-imidazol-2-yl-D-Ala)-D-Phe-Arg-Trp-Cys]-NH2 [Compound 104]	3.68

Substance	MC1/MC4 selectivity
Ac-Tyr-Arg-cyclo[hCys-Glu-His-D-Phe-Arg-Trp-Cys]-NH2 [Compound 166]	9.38
Ac-YRCIH[dF]RWC-NH2 (disulfide 3-9) [Compound 14]	12.54
Ac-Arg-cyclo[Cys-His-(4-Cl-D-Phe)-Arg-Trp-hCys]-NH2 [Compound 191]	127.33
YR[hCys]H[dF]RWC-OH (disulfide 3-8) [Compound 163]	19.46
4-phenylbutyryl-cyclo[hCys-His-D-Phe-Arg-Trp-Cys]-NH2 [Compound 147]	0.86
Ac-Arg-cyclo[Cys-Cya-His-D-Phe-Arg-Trp-Cys]-NH2 [Compound 26]	38.90
Ac-Tyr-Arg-cyclo[Cys-Glu-(β-((1-benzyl)-1,2,4-triazol-3-yl))-D-Ala)-D-Phe-Arg-Trp-Cys]-NH2 [Compound 109]	6.05
N-cyclohexanecarbonyl-cyclo[hCys-His-D-Phe-Arg-Trp-penicillamine]-NH2 [Compound 172]	26.45
Ac-cyclo[hCys-His-D-Phe-Arg-Trp-Cys]-OH [Compound 138]	38.81
Ac-Tyr-Arg-cyclo[Cys-Glu-(4-phenyl-1H-imidazol-2-yl-Ala)-D-Phe-Arg-Trp-Cys]-NH2 [Compound 103]	75.59
YRCEH[dF]RWCE-NH2 (disulfide 3-9) [Compound 71]	5.13
Tyr-Arg-cyclo[Cys-Glu-His-D-Phe-Arg-Trp-Cys]-OH [Compound 69]	18.38
Ac-Tyr-Arg-cyclo[Cys-Glu-(β-(1,2,4-triazol-3-yl))-Ala)-D-Phe-Arg-Trp-Cys]-NH2 [Compound 106]	23.95
Ac-YKCEH[dF]RWC-NH2 (disulfide 3-9) [Compound 128]	22.46
Ac-Tyr-Arg-cyclo[Cys-Glu-His-D-Phe-Arg-Trp-Cys]-glycinol [Compound 114]	4.00
cyclo[Cys-Glu-His-D-Phe-Arg-Trp-Cys]-NH2 [Compound 29]	15.00
Ac-YRCEH[dF]RWCSP-NH2 (disulfide 3-9) [Compound 119]	0.86
Ac-YRCGH[dF]RWC-NH2 (disulfide 3-9) [Compound 12]	6.72
